Test results: doi:10.1101/2025.08.06.668955, “High-Affinity, Structure-Validated and Selective Macrocyclic Peptide Tools for Chemical Biology Studies of Huntingtin” (bioRxiv, 2025)
Where a SMILES comes first, the peptide text is derived from it. Bridges are numbered along the chain shown (N, C = ends).

Tests used:
HTTQ54 = target: T1, HTTQ54 (Homo sapiens, UniProt P42858, INS38QQQQQQQQQQQQQQQQQQQQQQQQQQQQQQQQQ); experiment: Thermal shift assay (DSF), HTTQ54; format: binding; settings: SYPRO Orange, 0.25 mg/mL protein, macrocycle up to 10 μM, 2.5% DMSO, n=3
T1 construct: FLAG; made in house; host or cells: Sf9 insect cells (baculovirus)
Description: In an Axygen® 384-well PCR microplate (REF# PCR-384-LC480-W-NF, Corning), samples were mixed to yield a final concentration of 0.25 mg/mL Q54 or Q23/HAP40, a 5-pt 2-fold serial dilution of each macrocycle (top concentration of 10 μM, 2.5% DMSO), and 5X SYPRO™ Orange (CAT# S6650, Thermo Fisher Scientific) in buffer (20 mM HEPES pH 7.4, 150 mM NaCl, 1 mM TCEP, 0.005% Tween-20). Differential Scanning Fluorimetry (DSF) was performed using a LightCycler® 480 (Roche LifeSciences) set to a 4 °C/min temperature ramp (20–95 °C) and fluorescence detection at 580 nm. Melting temperatures (Tm) were obtained from the minima of the negative derivative of each curve. The propagated error of the thermal shift (ΔTm) was calculated from the standard deviation of each Tm mean (n=3). To ensure a maximally macrocycle-bound fraction (KD ~10 nM; ~100% bound) at 0.25 mg/mL HTT or HTT-HAP40 (~0.7 μM), the upper limit of macrocycle tested was 10 μM.
98 Supplementary Figure. 10. Thermal shift (ΔTm) induced by macrocycle binding. Melting
99 temperature of HTTQ54 (left) with HL5 or HL2 minus HTTQ54 with DMSO (46.5 °C), and (right)
100 HTTQ23-HAP40 with HD4, HL2, HL5, HHD2, HHD3, or HHL1 minus HTTQ23-HAP40 with DMSO
101 (51.0 °C). ΔTm significance was determined using an unpaired t-test with Welch correction,
102 comparing to the mean Tm of Q54 or Q23-HAP40 with DMSO; *P < 0.05, **P < 0.01, ***P <
103 0.001. […]

HTT = experiment: HL2 macrocycle pulldown from isogenic neuronal progenitor cells (NPCs), LC-MS/MS; format: binding, human; settings: isogenic NPC lines Q30/Q19, Q45/Q19 and Q81/Q27
Source text: We extended our analysis to isogenic neuronal progenitor cells (NPCs), which more closely resemble the neuronal populations affected in HD, both functionally and in terms of gene expression profiles ([Ooi et al., 2019]). […] Thus, we compared HL2 protein enrichment profiles across isogenic NPC lines harboring non-expanded (Q30/Q19) and expanded CAG repeats (Q45/Q19 and Q81/Q27).
Successful macrocycle-mediated pulldown was first confirmed by western blot in all NPC lines (Supplementary Figure 14a). […] HTT and HAP40 were the only proteins consistently overlapping across all three NPC lines (Supplementary Figure 14b). […]
Cells were harvested by centrifugation at 1,500 rpm for 5 minutes, washed twice with PBS, and snap-frozen. […] Protein concentration was determined by BCA assay (Thermo Fisher Scientific, 23225), yielding approximately 4 mg of protein on average. […]
All sample preparation, LC MS/MS data collection, and MS data searches were carried out at the SPARC BioCentre at The Hospital for Sick Children (Toronto, ON, Canada). […] Samples were analyzed by liquid chromatography tandem mass spectrometry (LC-MS/MS) using an EASY-nanoLC 1200 system with a 1 h analysis and an Orbitrap Fusion™ Lumos™ Tribrid™ Mass Spectrometer (Thermo Fisher Scientific). […]

T1 sequence (P42858 with tags, fused parts or gaps with the stated changes): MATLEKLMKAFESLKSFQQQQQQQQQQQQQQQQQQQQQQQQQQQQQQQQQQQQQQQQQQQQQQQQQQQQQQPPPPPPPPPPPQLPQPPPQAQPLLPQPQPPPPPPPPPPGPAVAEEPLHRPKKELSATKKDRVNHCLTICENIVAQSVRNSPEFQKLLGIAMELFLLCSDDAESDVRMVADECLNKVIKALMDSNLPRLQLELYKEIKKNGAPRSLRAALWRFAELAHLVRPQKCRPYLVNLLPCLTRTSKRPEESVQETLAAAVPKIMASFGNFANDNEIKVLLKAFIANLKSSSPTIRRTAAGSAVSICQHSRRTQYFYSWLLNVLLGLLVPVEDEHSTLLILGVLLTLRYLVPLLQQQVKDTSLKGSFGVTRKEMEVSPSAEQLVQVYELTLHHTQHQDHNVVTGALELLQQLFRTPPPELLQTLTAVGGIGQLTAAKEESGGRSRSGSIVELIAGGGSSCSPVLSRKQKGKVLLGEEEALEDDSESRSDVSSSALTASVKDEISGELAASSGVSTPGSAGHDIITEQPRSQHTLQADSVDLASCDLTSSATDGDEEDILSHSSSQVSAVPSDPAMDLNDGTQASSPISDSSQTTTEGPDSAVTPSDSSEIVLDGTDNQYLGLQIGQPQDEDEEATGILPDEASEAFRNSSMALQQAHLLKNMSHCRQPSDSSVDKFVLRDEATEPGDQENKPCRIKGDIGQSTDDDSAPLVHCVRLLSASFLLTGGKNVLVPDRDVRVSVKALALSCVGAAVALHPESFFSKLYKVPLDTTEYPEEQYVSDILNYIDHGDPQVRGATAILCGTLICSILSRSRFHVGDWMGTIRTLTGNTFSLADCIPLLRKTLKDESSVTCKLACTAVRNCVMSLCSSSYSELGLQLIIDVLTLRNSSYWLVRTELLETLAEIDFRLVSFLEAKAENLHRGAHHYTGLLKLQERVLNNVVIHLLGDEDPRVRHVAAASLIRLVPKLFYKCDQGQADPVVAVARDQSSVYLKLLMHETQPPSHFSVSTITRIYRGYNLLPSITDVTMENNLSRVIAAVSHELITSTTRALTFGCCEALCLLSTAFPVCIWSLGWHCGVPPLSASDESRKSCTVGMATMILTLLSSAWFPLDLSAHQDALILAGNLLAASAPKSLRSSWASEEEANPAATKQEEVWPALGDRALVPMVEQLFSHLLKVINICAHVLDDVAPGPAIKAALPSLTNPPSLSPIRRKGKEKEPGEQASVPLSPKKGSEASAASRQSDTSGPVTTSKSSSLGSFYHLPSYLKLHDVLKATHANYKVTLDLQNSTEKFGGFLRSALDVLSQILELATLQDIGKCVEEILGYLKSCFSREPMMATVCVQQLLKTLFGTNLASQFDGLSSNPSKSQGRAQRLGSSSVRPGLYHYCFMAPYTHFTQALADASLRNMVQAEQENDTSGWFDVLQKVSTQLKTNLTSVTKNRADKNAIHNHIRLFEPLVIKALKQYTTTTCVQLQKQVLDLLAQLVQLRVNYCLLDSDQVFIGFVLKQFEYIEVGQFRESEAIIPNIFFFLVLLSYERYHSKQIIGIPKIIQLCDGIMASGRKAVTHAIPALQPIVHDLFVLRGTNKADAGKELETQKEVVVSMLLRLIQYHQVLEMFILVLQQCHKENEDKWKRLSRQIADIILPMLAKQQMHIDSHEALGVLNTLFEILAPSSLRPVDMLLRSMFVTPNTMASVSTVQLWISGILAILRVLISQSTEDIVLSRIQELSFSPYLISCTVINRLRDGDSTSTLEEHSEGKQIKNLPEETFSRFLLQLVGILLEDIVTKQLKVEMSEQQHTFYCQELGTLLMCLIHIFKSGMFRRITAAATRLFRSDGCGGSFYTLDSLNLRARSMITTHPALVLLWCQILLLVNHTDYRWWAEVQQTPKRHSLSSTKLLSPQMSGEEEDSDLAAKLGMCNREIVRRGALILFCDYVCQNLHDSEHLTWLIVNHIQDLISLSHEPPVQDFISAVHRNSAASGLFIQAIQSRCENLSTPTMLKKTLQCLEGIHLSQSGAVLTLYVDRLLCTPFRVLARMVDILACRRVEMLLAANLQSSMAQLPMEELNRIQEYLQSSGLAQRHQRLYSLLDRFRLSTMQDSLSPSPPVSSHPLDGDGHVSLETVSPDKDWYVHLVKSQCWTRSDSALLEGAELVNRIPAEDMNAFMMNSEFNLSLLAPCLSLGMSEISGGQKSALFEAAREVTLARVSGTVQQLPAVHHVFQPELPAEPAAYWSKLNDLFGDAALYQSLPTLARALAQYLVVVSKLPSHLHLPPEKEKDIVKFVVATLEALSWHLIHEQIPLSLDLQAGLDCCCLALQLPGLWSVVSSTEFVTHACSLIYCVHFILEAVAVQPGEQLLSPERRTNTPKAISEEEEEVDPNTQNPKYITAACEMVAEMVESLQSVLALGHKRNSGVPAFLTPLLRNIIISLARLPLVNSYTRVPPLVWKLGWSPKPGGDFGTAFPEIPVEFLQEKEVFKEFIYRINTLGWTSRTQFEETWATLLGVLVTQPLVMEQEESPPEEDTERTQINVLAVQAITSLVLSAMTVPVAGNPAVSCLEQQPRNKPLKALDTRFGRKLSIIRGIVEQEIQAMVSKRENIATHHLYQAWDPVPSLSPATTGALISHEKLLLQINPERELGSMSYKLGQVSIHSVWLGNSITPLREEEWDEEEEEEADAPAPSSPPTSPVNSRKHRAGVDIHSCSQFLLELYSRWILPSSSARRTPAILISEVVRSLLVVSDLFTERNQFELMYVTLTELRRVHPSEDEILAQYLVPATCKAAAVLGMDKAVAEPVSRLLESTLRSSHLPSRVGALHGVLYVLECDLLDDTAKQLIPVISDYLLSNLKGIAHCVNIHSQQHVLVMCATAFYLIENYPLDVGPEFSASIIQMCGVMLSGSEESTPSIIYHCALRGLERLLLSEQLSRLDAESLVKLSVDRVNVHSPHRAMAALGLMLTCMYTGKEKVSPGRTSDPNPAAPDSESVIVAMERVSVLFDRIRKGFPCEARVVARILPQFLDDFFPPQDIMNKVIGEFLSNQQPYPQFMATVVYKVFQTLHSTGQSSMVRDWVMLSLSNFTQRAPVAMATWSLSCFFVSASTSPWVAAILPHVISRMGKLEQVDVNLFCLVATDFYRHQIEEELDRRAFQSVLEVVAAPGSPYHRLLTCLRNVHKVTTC

Thermal shift (ΔTm) of HTTQ54 induced by macrocycle (HTTQ54): No significant thermal effects
SMILES: CC(C)C[C@@H]1NC(=O)[C@H](Cc2ccc(O)cc2)NC(=O)[C@H](CCCNC(=N)N)NC(=O)[C@H](C)NC(=O)[C@H]([C@@H](C)O)NC(=O)[C@H](Cc2ccc(O)cc2)NC(=O)CSC[C@@H](C(N)=O)NC(=O)[C@H](CCCCN)NC(=O)[C@H](Cc2ccc(O)cc2)NC(=O)[C@H](Cc2c[nH]cn2)NC(=O)[C@H](CC(C)C)NC(=O)[C@H]([C@@H](C)O)NC(=O)CNC(=O)[C@H](CC(C)C)NC(=O)[C@H]([C@@H](C)O)NC1=O [HL2] ({CH2CO}-YTARYLTLGTLHYKC-NH2; thioether N-15; C-terminus assumed)
Enrichment of HTT in HL2 pulldown from NPC lines by LC-MS/MS (HTT): most abundantly enriched protein across all lines
